Experimental data taken from PubChem BioAssay (NCI).
Where “and” joins values, the source holds several entries; their conditions need not be identical. Equal values may be shown once.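 Grown in 96-well plates, cells were treated for 48 hours with each compound at five concentrations. Insufficient inhibition: endpoint recorded as highest concentration tested. The concentration for 50% growth inhibition is given as GI50. TGI denotes the concentration required for complete inhibition of growth.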 Calls of active or inactive are those of the source. Rule as the data show it: active = GI50 below about 0.43 µM; inactive = the rest.

What was measured:
Experiment in all cases: growth of human tumour cells (NCI), 48 h
[1] = tested on: DMS 114 small cell lung
[2] = tested on: KM20L2 colon
[3] = tested on: LXFL 529 NSCLC
[4] = tested on: M19-MEL melanoma
[5] = tested on: MDA-N
[6] = tested on: RXF-631 renal
[7] = tested on: SNB-78 CNS
[8] = tested on: XF 498 CNS
[9] = tested on: HOP-18 NSCLC

Compound	TGI [1] [µM]	TGI [2] [µM]	TGI [3] [µM]	TGI [4]	TGI [5]	TGI [6] [µM]	TGI [7]	TGI [8] [µM]	TGI [9] [µM]	other results
CCN(CC)CCCC(C)Nc1c2ccc(Cl)cc2nc2ccc(OC)cc12 (stereo not given)	3.1	3	2.95	3.14 µM	3.95 µM	3.55	11.5 µM	3.12		
COc1ccc(NC(=O)C(=O)C(C(=O)c2ccccc2)C2OC(=O)c3ccccc32)c([N+](=O)[O-])c1 (stereo not given)	> 100	> 100	> 100	> 100 µM			> 100 µM	> 100	> 100	
NC(=O)C(=Cc1ccc(C(O)P(=O)(O)O)cc1)C(N)=O (stereo not given)	> 100	> 100	> 100	> 100 µM		> 100	> 100 µM	> 100	> 100	
Cc1[nH]c2ccccc2c1C1Cc2ccccc2N1C(=O)/C=C\C(=O)O (stereo not given)	64.4	> 100	41.1	> 100 µM		> 100	> 100 µM	47.8		
O=C(Nc1cc(Cl)c(Cl)cc1Cl)C(=O)C1C=CCS1(=O)=O (stereo not given)	> 100	> 100	> 100	> 100 µM			> 100 µM		> 100	
CC(=O)CC(=O)Nc1ccc2ccccc2c1					> 100 µM					
CCC1(CC)C(=O)OC(=O)C1(CC)CC					> 100 µM					
Cc1c(NC(=O)C(C)(C)Br)c(=O)oc2c(C)c3occc(=O)c3cc12	> 100	> 100	> 100			> 100		98.6		
CN1CCN(CCCN)CC1					> 100 µM					
Nc1ccc(N(S(=O)(=O)c2ccccc2)S(=O)(=O)c2ccccc2)c(Cl)c1					> 100 µM					
CC(=O)OCC1OC(N2C(=O)C(=O)c3cc(C)ccc32)C(OC(C)=O)C(OC(C)=O)C1OC(C)=O (stereo not given)	> 100	> 100	> 100	> 100 µM			> 100 µM		> 100	
O=S(=O)(N/N=C/c1ccc(/C=N/NS(=O)(=O)c2ccccc2)cc1)c1ccccc1	> 100	> 100		> 100 µM		> 100	> 100 µM	> 100	> 100	
CCOC(=O)NC(=O)c1cn(CC(=O)NCC(=O)NCC(=O)NCCCN2CCN(CCCNC(=O)CNC(=O)CNC(=O)Cn3cc(C(=O)NC(=O)OCC)c(=O)[nH]c3=O)CC2)c(=O)[nH]c1=O	> 100	> 100	> 100	> 100 µM		> 100	> 100 µM	> 100	> 100	
CC1=C(C(=O)Nc2ccccc2C)C(c2ccc(Cl)c(Cl)c2)C(C(=O)Nc2ccccc2C)=C(C)N1	41	34.8	43.4	45.2 µM		73.2	> 100 µM	56.4	69.4	
CCCCCCCCC[C@@H]1CC(=O)OCC2OC(O[C@H](CCCCCCCCC)CC(=O)OCC3OC(O[C@H](CCCCCCCCC)CC(=O)OCC4OC(O1)C(O)C(O)C4O)C(O)C(O)C3O)C(O)C(O)C2O (stereo not given in full)	24	19.7	18	16.5 µM			34.6 µM	23.3	0.0797	
CCN(CC)CC(O)CNc1ccc(NCC2CO2)c2c1C(=O)c1ccccc1C2=O (stereo not given)	4.43	8.63	0.247	0.577 µM	2.31 µM	2.24	2.6 µM		37	GI50 [5]: 0.257 µM
O=C1c2ccccc2-c2cccc3ccc(Cc4ccc5ccccc5c4)c1c23		> 100		> 100 µM		> 100	> 100 µM	> 100		
COc1cc(/C=C(\C#N)C(=O)c2ccccc2)ccc1OCc1ccccc1	> 100	> 100		> 100 µM			> 100 µM	> 100		
O=C1c2ccccc2C(=O)N1CCCSc1ccccc1					> 100 µM					
CC[C@@H]1OC2(C)CC(S(=O)(=O)c3ccccc3O)CC1O2 (stereo not given in full)		> 100	> 100	> 100 µM		> 100			> 100	
O=c1ccn(C2OC(CO)C(O)C2F)c(=O)[nH]1 (stereo not given)					> 100 µM					
CO[C@@H]1/C=C\C=C(/C)C(=O)NC2=CC(=O)C(NCCN(C)C)=C(C[C@@H](C)C[C@@H](OC)[C@@H](O)[C@H](C)/C=C(\C)[C@H]1OC(N)=O)C2=O					1.92 µM and 2.18 µM					

Compound	TGI [1] [µM]	TGI [2] [µM]	TGI [3] [µM]	TGI [4]	TGI [5]	TGI [6] [µM]	TGI [7]	TGI [8] [µM]	TGI [9] [µM]	other results
C=CC1(C(=O)O)CCC(C(C)(C)C)CC1 (stereo not given)	> 100	> 100	> 100	> 100 µM		> 100	> 100 µM	> 100	> 100	
Cc1c[nH]c2c(O)cc3c(c12)[C@H](CCl)CN3C(=O)c1cc2cc(NC(=O)Nc3ccc4[nH]c(C(=O)N5C[C@@H](CCl)c6c5cc(O)c5[nH]cc(C)c65)cc4c3)ccc2[nH]1				3.44 ng/mL			1.59 µM and 0.00887 µg/mL and 6.72 µg/mL			GI50 [1]: 0.000887 ng/mL and 0.888 ng/mL; outcome [9]: inactive; outcome [2]: inactive; GI50 [4]: 1.14 ng/mL; GI50 [5]: 0.0123 µM; GI50 [7]: 0.000887 ng/mL and 2.73 ng/mL; outcome [8]: inactive
CC(C)CS(=O)(=O)/C(=C(\c1ccc(Br)cc1)S(=O)(=O)CC(C)C)c1ccc(Br)cc1		> 100	> 100	> 100 µM		> 100	> 100 µM	> 100	> 100	
NNC(=O)/C(=C/c1ccc(Cl)c(Cl)c1)NC(=O)c1ccccc1	> 100	> 100	> 100	> 100 µM		> 100	> 100 µM	> 100		
COc1cc(Cl)c2c3c(c(C(C)=O)oc13)CCC2	> 100	> 100	> 100	> 100 µM		> 100	> 100 µM		> 100	
CC1C[C@@]2(c3ccccc3)C(=O)CCC[C@H]2N1 (stereo not given in full)	> 100	> 100	> 100	> 100 µM			> 100 µM			
COc1ccc(-c2onc(-c3ccc([N+](=O)[O-])cc3)c2C2=NCCN2)cc1		> 100	> 100	> 100 µM			> 100 µM	> 100	> 100	
O=Cc1ccc(-c2cc(C=O)c(-c3cccs3)[nH]2)s1					75 µM and > 100 µM					GI50 [5]: 33.7 µM
COc1ccccc1N1C(=O)/C(=C/c2ccc(N(CCC#N)CCC#N)cc2C)N=C1c1cc([N+](=O)[O-])ccc1Cl	> 100	> 100	> 100	56.3 µM			> 100 µM	> 100	> 100	
O=C(/C=C/c1ccc([N+](=O)[O-])o1)N1CCN(Cc2ccccc2)CC1	27.4	24.3	20.2	21.8 µM			54.5 µM	30.4	37.1	
COC(=O)c1s/c(=N\C(=S)N(C)C)n(-c2ccccc2)c1C(=O)OC	> 100	> 100		> 100 µM			> 100 µM			
CCCCc1c2c(nc3c1CCC/C3=C\c1ccccc1)C(=O)CCC2	41.7	41.7	> 100	34.4 µM			52.5 µM	33.2	79	
CC(=O)Nc1ccc(C(=O)NN2C(=O)C(Cl)C2c2ccc(Cl)cc2)cc1 (stereo not given)			> 100	> 100 µM					> 100	
CCNC(=O)CCN(C(=O)O)S(=O)(=O)c1ccc(NC(=O)c2ccccc2)cc1	> 100	> 100	> 100	> 100 µM			> 100 µM	> 100	> 100	
Cn1ccnc1CC(C)(O)c1ccccc1 (stereo not given)					> 100 µM					
CCCCOC(=O)NC(=O)c1cn(CCCOC(=O)CCCCCCCCC(=O)OCCCn2cc(C(=O)NC(=O)OCCCC)c(=O)[nH]c2=O)c(=O)[nH]c1=O	> 100	> 100	> 100	> 100 µM		> 100		> 100	> 100	
CCOC(=O)C(N)C[S][Sn]([CH3])([CH3])[Cl] (stereo not given)	> 100	> 100	> 100	> 100 µM			> 100 µM	> 100	> 100	GI50 [1]: 97.4 µM; GI50 [9]: > 100 µM; GI50 [2]: > 100 µM; GI50 [3]: 28.7 µM; GI50 [4]: > 89.1 µM; GI50 [7]: > 94.3 µM; GI50 [8]: > 100 µM
CCOC(=O)Nc1nc2ccc(Cn3cccc3)cc2[nH]1	> 100	12.9	> 100	> 100 µM	0.965 µM	> 100	> 100 µM	> 85	> 100	
COc1ccc([N+](=O)[O-])c2c(NCCCN(C)C)c3ccccc3nc12					1.55 µM					
COC(=O)C1C(C(=O)OC)C2(OC)c3ccccc3-c3ccccc3C12 (stereo not given)	87.9	87.9	> 100	> 100 µM		> 100			> 100	
O=C1OC(CC(=O)c2ccc(Cl)c(Cl)c2)C(Cl)=C1Cl (stereo not given)	> 100	> 100	> 100	> 100 µM		> 100		> 100	> 100	
COC(=O)CCc1cc(OC)c2c(c1)C(C(=O)OC)C(c1ccc(OC)c(OC)c1)O2 (stereo not given)					> 100 µM and 23.2 µM					
